Laboratory results published in article PMC7304243, “Dimeric γ-AApeptides With Potent and Selective Antibacterial Activity” (Frontiers in Chemistry, 2020).
Read-outs that look alike come from different tables or passages of the source.

Columns and labels:
MRSA [1] = test: Fluorescence microscopy, DAPI and PI; assay type: cell-based, Staphylococcus aureus; settings: 6 μg/mL, 2 h
Protocol: Experiments of fluorescent microscopy is also a broadly used method to determine the integrity of bacteria membrane. Propidium iodide (PI) and 4′,6-diamidino-2-henylindole (DAPI) are commercially available dyes that stain dead or injured cells with compromised membrane and all cells irrespective of their viability, respectively. The efficacy of compound 2 to interrupt the bacterial membrane was evaluated by these two dyes.
Fluorescent dyes propidium iodide (PI) and 4′,6′-diamidino-2-phenylindole dihydrochloride (DAPI) can be used to distinguish the viable cell from the dead cells. After obtaining the mid-logarithmic phase bacteria solution as above, the bacteria solution was diluted 100 times and mixed with compound 2 at the concentration of 6 μg/mL. Then the mixture was incubated 2 h and centrifuged at 1,690 g (3,000 rpm) for 15 min at 4°C to harvest the cells. After washing with PBS for 3 times, PI (5 μg/mL) and DAPI (10 μg/mL) was used to dye cells 20 min respectively. Controls were carried out without compounds. The bacterial cells were then visualized and analyzed by employing the LEICA DM 2000 optical microscope with an oil-immersion objective (40 ×). The experiment was repeated three times with duplicates each time.

MRSA [2] = test: TEM study; assay type: cell-based, Staphylococcus aureus; settings: MRSA 10^6 CFU/mL, 6 μg/mL, 2 h
Protocol: Transmission electron microscopy (TEM) is a straightforward method to visualize the interruptive effect of compounds on the membrane of bacteria. Mid log phase MRSA without the treatment of compound 2 had intact membrane (Figure 5A).
After being incubated to mid log phase, MRSA(10^6 CFU/mL) was mixed with 6 μg/mL compound 2 for 2 h. Then the bacteria cells were collected and washed with PBS and DI water. Following that, bacteria was resuspended in deionized water. Control bacterial samples were obtained without adding drugs. Above samples were applied to TEM grids by 5 μL bacteria solution, and the grids were allowed to dry in vacuum oven at the temperature of 45°C for 45 seconds. After being dried, TEM images were obtained on a FEI Morgagni 268D TEM with an Olympus MegaView III camera at 60 kV on the microscope. The microscope used AnalySiS software to run the camera.

MRSA [3] = test: Membrane depolarization study, DiSC3(5); assay type: cell-based, Staphylococcus aureus; settings: MRSA 10^6 CFU/mL, 1 μM DiSC3(5), compound added after 30 min, ex 622 nm / em 670 nm
Description: HDPs are known to act on the bacterial membrane. As the mimics of HDPs, compounds 1–14 were also expected to kill bacteria through disintegrating the bacterial cell membrane. To this end, 3, 3′- Dipropylthiadicarbocyanine iodide [DiSC3(5)] was used as a fluorogenic probe to detect and measure changes in transmembrane potential. Briefly, fluorescence intensity is very weak when it accumulates on hyperpolarized membranes due to their self-quenching (Niu et al., [2018]). […] This method was used to initially determine the bacterial membrane permeability caused by the compound 2.
Mid log phase MRSA bacteria solution was obtained as above. Then, cells were collected and washed with 5 mM HEPES and 5 mM glucose respectively. 5 mM HEPES:5 mM glucose:100 mM KCl = 1:1:1 was used to resuspended bacteria cells (10^6 CFU/mL). Following that, 200 μL of bacterial suspension and 1 μM DiSC3(5) were included in a 96-well plate, and the fluorescence of the suspension was monitored at room temperature for 30 min at excitation wavelength of 622 nm and emission wavelength of 670 nm. After 30 min, compound 2 was added to the wells and the increased potential was monitored. The experiment was repeated three times with duplicates each time.

MRSA [4] = test: Drug resistance study, 20 passages; assay type: cell-based, Staphylococcus aureus
Protocol: Drug resistance has already been recognized as one of the fastest growing threats all over the world. […] The MIC of compound 2 was determined daily, and then the bacteria suspension with half of the MIC was diluted to 10^6 CFU/mL and incubated with compound to test its activity until 20 passages had been reached.
The experiment was carried out by following our previously reported protocol (Su et al., [2017]; Niu et al., [2018]). The study was conducted for 20 passages.

MRSA [5] = test: Time-kill kinetics; assay type: cell-based, Staphylococcus aureus
Protocol: Time-kill kinetic study of compound 2 were investigated. After being incubated from one colony in 4 mL TSB medium overnight at 37 °C while shaking, MRSA was diluted 2,500 times to another fresh 4 mL TSB solution and grew for 6~8 h to mid-logarithmic phase. Suspension [10^6 colony-forming units per milliliter (CFU/mL) according to the read of OD value] was made and then incubated with different concentration of 2 at 37°C for 10 min, 30 min, 60 min, 120 min respectively. The MRSA and drug mixture were diluted 10^2-fold and spread on the TSB agar plates. These plates were incubated at 37°C overnight. The numbers of colonies on each plate were transferred to lg[CFU/mL] and plotted against the incubation time. The experiment was repeated three times with duplicates each time.

[6] = tested on: red blood cell (RBC) of mice; test: Hemolysis study (HC50); assay type: cell-based
Protocol: Fresh red blood cell (RBC) of mice was collected by centrifuge with the speed of 500 g for 10 mins until the supernatant is clear. Then, the RBC was diluted with PBS for 20-fold. After adding 50 μL PBS in each vial on 96 plates, 1 mg/mL compounds were serial diluted until reaching the lowest concentration 1.9 μg/mL. Diluted RBC was added into each vial and incubated at 37°C for 1 h. Then, plates were centrifuged at 2,301 g (3,500 rpm) for 10 mins. 30 uL supernatant in each vial was added into 100 μL PBS and read Biotek Synergy HT plate reader at 540 nm. The hemolytic activity was calculated by the formula % hemolysis = (Abssample-AbsPBS) / (AbsTriton-AbsPBS) × 100%. 1% Triton X-100 were used as the positive control and 1 × PBS buffer was used as the negative control.

[7] = tested on: methicillin-resistant S. epidermidis (MRSE, RP62A); assay type: cell-based, Staphylococcus epidermidis; settings: lowest concentration that completely inhibits growth, repeated three times
Protocol: (§1) Having obtained all compounds, their antibacterial efficacy was subsequently evaluated by measuring the minimum inhibitory concentration (MIC). Three significant resistant bacteria, including methicillin-resistant Staphylococcus aureus (MRSA) (ATCC 33591), Staphylococcus epidermidis (MRSE) (RP62A), and vancomycin-resistant E. faecalis (VRE) (ATCC 700802), were chosen for our studies. Meanwhile, hemolytic activity (HC50) was also measured to assess the selectivity of these compounds toward bacteria and blood cells. […] Importantly, HC50 of almost all compounds are equal or more than 250 μg/mL. […] This is consistent with our previous findings that significant hydrophobicity, particularly two long alkyl tails, could form hydrophobic clusters that prevent the formation of amphipathic structures necessary for antimicrobial activity (Li et al., [2014b]; Singh et al., [2018]). […] MICs of 10–14 unveiled that proper bulky hydrophobic groups were beneficial in the design of bactericide. These five compounds have the same (3r,5r,7r)-1-methyladamantane side chain but different tails, including C9, as well as C11 alkyl chain, ethylbenzene, and (3r,5r,7r)-1-methyladamantane. Among them, 10, which had no tail, was the best toward MRSA and MRSE, with the MICs of 5 μg/mL and 2 μg/mL respectively. […] Compounds 7 and 8 also shared a similar trend. It appears that compounds with bulky groups have better activity, due to the lager molecular volume or shorter molecular length of these bulky groups. Therefore, the selection of proper hydrophobic bulky groups when designing HDP-mimicking agents is considerably crucial (Wu et al., [2012]; Teng et al., [2016a]).
(§2) The antimicrobial assay of the compounds was conducted on the following three bacteria strains: methicillin-resistant S.aureus (MRSA, ATCC 33591), methicillin-resistant S. epidermidis (MRSE, RP62A), and vancomycin-resistant E. faecalis (VRE, ATCC 700802). The procedures were followed as reported previously. […] All measurements were repeated at least three times with duplicates each time.

[8] = tested on: vancomycin-resistant E. faecalis (VRE, ATCC 700802); assay type: cell-based; settings: lowest concentration that completely inhibits growth, repeated three times
Protocol: as §1, §2

[9] = tested on: methicillin-resistant S. aureus (MRSA, ATCC 33591); assay type: cell-based, Staphylococcus aureus; settings: lowest concentration that completely inhibits growth, repeated three times
Protocol: as §1, §2

[10] = mouse RBC in PBS, 37°C, 1 h, absorbance 540 nm, 1% Triton X-100 positive control

Compound | Hemolysis (HC50) [6, 10] [µg/mL] | MIC MRSE [7] [µg/mL] | MIC VRE [8] [µg/mL] | MIC MRSA [9] [µg/mL] | further results
CCCCCCCCCC(=O)N(CC(=O)Nc1ccc(NC(=O)CN(C[C@@H](N)CCCCN)C(=O)CCCCCCCCC)cc1)C[C@@H](N)CCCCN [Compound 2, N,N'-((1,4-phenylenebis(azanediyl))bis(2-oxoethane-2,1-diyl))bis(N-(2,6-diaminohexyl)decanamide)] |  |  |  |  | DAPI / PI staining of treated MRSA (MRSA [1]): fluorescence could be detected in both channels; TEM observation of treated MRSA (MRSA [2]): large amount of cell debris can be detected; DiSC3(5) fluorescence intensity after adding compound (MRSA [3]): fluorescence intensity increased dramatically; Change of MIC values after 20 passages (MRSA [4]; 20 passages at half of the MIC): almost unchanged; Time-kill result at 6 μg/mL (MRSA [5]; MRSA 10^6 CFU/mL, 6 μg/mL, 37°C, up to 120 min): still colonies after 120 mins; Time in which all bacteria were eradicated (MRSA [5]; MRSA 10^6 CFU/mL, 12 μg/mL, 37°C): ≤ 120 min; Time in which all bacteria were eradicated (MRSA [5]; MRSA 10^6 CFU/mL, 24 μg/mL, 37°C): ≤ 120 min; Time to eradicate MRSA (MRSA [5]; abstract statement, concentration not given): ≤ 2 h
CCCCCCCCCCCCCC(=O)N(CC(=O)Nc1ccc(NC(=O)CN(C[C@@H](N)CCCCN)C(=O)CCCCCCCCCCCCC)cc1)C[C@@H](N)CCCCN [Compound 4, N,N'-((1,4-phenylenebis(azanediyl))bis(2-oxoethane-2,1-diyl))bis(N-(2,6-diaminohexyl)tetradecanamide)] | >250 | >25 | >25 | >25 | 
N-(2-(2-((1s,3s)-adamantan-1-yl)acetamido)-6-aminohexyl)-N-(2-((4-(2-(N-(2-(2-((3r,5r,7r)-adamantan-1-yl)acetamido)-6-aminohexyl) decanamido) acetamido) phenyl) amin)−2-oxoethyl)decanamide [Compound 7] |  | 2 | 20 | 10 | Hemolysis (HC50) [6]: 250 µg/mL
CCCCCCCCCCCCCCCC(=O)N(CC(=O)Nc1ccc(NC(=O)CN(C[C@@H](N)CCCCN)C(=O)CCCCCCCCCCCCCCC)cc1)C[C@@H](N)CCCCN [Compound 5, N,N'-((1,4-phenylenebis(azanediyl))bis(2-oxoethane-2,1-diyl))bis(N-(2,6-diaminohexyl)palmitamide)] | >250 | >25 | >25 | >25 | 
CCn1cc(C(=O)O)c(=O)c2cc(F)c(N3CCNCC3)cc21 [norfloxacin, reference compound] |  |  |  |  | Increase of MIC after 20 passages (MRSA [4]; 20 passages): 10 fold
CCCCCCCCCC(=O)N[C@@H](CCCCN)CN(CC(=O)Nc1ccc(NC(=O)CN(C[C@H](CCCCN)NC(=O)CCCCCCCCC)C(=O)CC23CC4CC(CC(C4)C2)C3)cc1)C(=O)CC12CC3CC(CC(C3)C1)C2 [Compound 11, N,N'-((((1,4-phenylenebis(azanediyl))bis(2-oxoethane-2,1-diyl))bis ((2-((3r,5r,7r)-adamantan-1-yl)acetyl)azanediyl))bis(6-aminohexane-1,2-diyl))bis(decanamide)] | >250 | >25 | >25 | >25 | 
